Test results taken from patent publication US12036022B2, “Transcutaneous organ function measurement” (MediBeacon Inc., priority 2008, dated 2024).

Assay: Half-life (renal excretion) after intravenous administration to rats
Conditions: rat, in vivo
Protocol: The chromatographically separated fractions F5 and F10 were derivatized with fluorescein isothiocyanate (FITC) to form FITC-F5 and FITC-F10. FITC-F10 was administered to rats intravenously. The interstitial fluorescence of the FITC measured at an excitation wavelength of 485-520 nm was determined. The fluorescence in the serum was measured as a control.

half-life: 25.02 ± 1.67 min
Substance: sinistrin
